Common to all, as to type: in vivo, human
Data set [1] in a line: Phase 1: safety (adverse events) in SCD patients. As to the method: In the SD cohort, 7 pts (2 males, 5 females, all HbSS) received 700 mg Compound 1 (n=5) or placebo (n=2).
All SCD patients who received a single 700 mg dose of Compound 1 or placebo were monitored for adverse events for 7 days. The incidence of treatment emergent adverse events (TEAEs) in SCD patients receiving Compound 1 (700 mg) or placebo are reported in Table 23. Six TEAEs were reported in 4 patients; all TEAEs were grade 1 and transient. Specifically, six TEAEs were reported in 4 of 7 (57%) patients, including 3 TEAEs (arthralgia, headache, palpitations) in 2 of 5 (40%) pts receiving Compound 1 and 3 TEAEs (back pain, myalgia, pruritis) in 2 of 2 (100%) pts receiving placebo; all TEAEs were grade 1 and transient. […] One possibly related TEAE (palpitations) occurred about 8 hours post dose. No other symptoms were observed, and the palpitations resolved in <1 minute. […] The single 700 mg dose of Compound 1 was considered tolerable, and the first multiple dose SCD cohort was initiated.
Based on data from the MAD1 (300 mg once daily for 14 days), Compound 1 is well-tolerated in patients with SCD. In all, eighteen TEAEs were reported in 7 of 9 patients in the MAD1 (300 mg once daily) cohort (N=9). These included (a) eight Grade 1 TEAEs, including 3 patients c/o headache, 1 each of nausea, constipation, somnolence, increased LDH and increased AST, of which two AEs considered to be possibly related to study treatment were reported by one patient each (1 AE of headache and 1 AE of nausea); (b) six Grade 2 TEAEs, including 3 uncomplicated sickle pain events (in 2 patients), 1 patient with N/V and 1 increased reticulocytes, of which no AEs were considered related to study treatment, all AEs of pain events were considered unrelated and consistent with each patient's SCD pain history, and all AEs were treated with patient's standard home pain medications (no SAE/no hospitalization); and (c) one Grade 4 TEAE of elevated creatine kinase, unrelated to study treatment. Non-treatment-related AEs were consistent with events experienced in this patient population. No treatment-related serious AEs were reported.

Data set [2] is described as follows: Phase 1 SAD/MAD: safety (adverse events) in healthy volunteers. As to the method:
In this study, SAD/MAD cohorts are randomized (3 to 1) to receive Compound 1 or placebo (P). Compound 1 was evaluated first in 4 healthy SAD cohorts and 4 healthy MAD (14-day dosing period) cohorts. Based on the safety, and PK/PD profile from HS, Compound 1 is then evaluated in 1 SCD SAD cohort and 2 SCD MAD cohorts. Specifically, based on the safety and pharmacokinetic/pharmacodynamics (PK/PD) profile in healthy volunteer studies, Compound 1 is evaluated in patients (pts) with SCD, first in a single dose (SD or SAD) cohort and then in multiple-dose (MD or MAD) cohorts (14-day and 12-week). Safety assessments include AEs, vital signs, ECGs and laboratory parameters. PK/PD blood sampling was performed on Day 1 (SAD/MAD) and Day 14 (MAD) and up to 72 h after the last dose and at the end-of-study visit. PD parameters included 2,3-DPG, ATP, and p50 in all cohorts with additional PD studies (including oxygen scan) performed only in the SCD cohorts. PD parameters included 2,3-DPG, ATP, p50, RBC deformability with controlled deoxygenation and reoxygenation (Lorrca® oxygen scan) and varying osmolality (Lorrca® osmoscan)). To maintain study blind, pt identifiers were removed when needed.
Outcome Measures Primary Outcome Measures: • 1. Incidence, frequency, and severity of adverse events (AEs) per CTCAE v5.0 of a single ascending dose and multiple ascending doses of Compound 1 in adult healthy volunteers and SCD patients. Incidence of abnormal laboratory test results (clinical chemistry, endocrine hematology, urinalysis). Change from baseline in vital signs (blood pressure, respiratory rate, heart rate, and oral temperature). Incidence of treatment-emergent clinically significant abnormal findings in ECGs. • [Time Frame: Up to 3 weeks of monitoring] • 2. […] Area under the plasma concentration-time curve from time zero until the 24-hour time point (AUC0-24) • [Time Frame: Up to 3 weeks of testing] • 5. Area under the plasma concentration-time curve from time zero until last quantifiable time point (AUC0-last) • [Time Frame: Up to 3 weeks of testing] • 6. Area under the plasma concentration-time curve from time zero to infinity (AUC0-inf) • [Time Frame: Up to 3 weeks of testing] • 7. […] Apparent volume of distribution (Vd/F) • [Time Frame: Up to 3 weeks of testing] • 10. Terminal disposition rate constant (Lz) • [Time Frame: Up to 3 weeks of testing] • 11. […] Secondary Outcome Measures: • 12. Change from baseline in the levels of 2,3-diphosphoglycerate (DPG) and adenosine triphosphate (ATP) in the red blood cells (RBCs) of healthy volunteers and SCD patients after single and multiple doses of Compound 1. • [Time Frame: Up to 3 weeks of testing] • 13. […] Change from baseline heart rate after a single dose of Compound 1 in healthy volunteers and/or SCD subjects • [Time Frame: up to 7 days] • 15. Change from baseline PR after a single dose of Compound 1 in healthy volunteers and/or SCD subjects • [Time Frame: up to 7 days] • 16. Change from baseline QRS (AHR, APR, and AQRS) after a single dose of Compound 1 in healthy volunteers and/or SCD subjects • [Time Frame: up to 7 days] • 17. Change from baseline T-wave morphology after a single dose of Compound 1 in healthy volunteers and/or SCD subjects • [Time Frame: up to 7 days] Exploratory Outcome Measures: • 18. Effect of food on Cmax, AUC0-24/AUClast • 19. Effect of AUClast/AUC0-24, Cmax, minimum plasma concentration (Cmin), peak-to trough ratio, dose linearity, accumulation ratio on safety, PD, and hematologic parameters of interest, as assessed by exposure-response analyses • 20. Effect of 2,3-DPG reduction in RBCs on the oxyhemoglobin dissociation curve (p50; partial pressure of O2 at which 50% of hemoglobin is saturated with O2) after a single dose and after chronic dosing of Compound 1 • 21. Effect of chronic Compound 1 dosing on normal and SCD RBC deformability by osmotic gradient ektacytometry and oxygen gradient ektacytometry • 22. […]

A short description of data set [3]: Phase 1: hematologic and hemolytic laboratory parameters in SCD patients. As to conditions: SCD single 700 mg dose.

Experimental findings from patent US12128035B2, “Activating pyruvate kinase R” (Novo Nordisk Health Care AG, priority 2021, dated 2024) are described below.

Take `O=C([C@H](CO)c1ccccc1)N1CC2=C(C1)CN(S(=O)(=O)c1cnc3c(c1)OCCO3)C2` (single isomer, unassigned) [Compound 1]: in data set [1] (SCD 300 mg × 14 days (n = 7)), the “Any TEAE, n (%)” value is reported as 6 (86%) n (%); the “Any serious adverse event (SAE), n (%)” value is 0 n (%); the “Related to study drug, n (%)” value is given as 2 (29%) n (%). For the same compound, in data set [1] (SCD 400 mg QD, 84 days (12 weeks), open-label), the tolerability entry was “well-tolerated”. In addition, the “serious adverse events / TEAEs leading to withdrawal” value in data set [1] (SCD SD cohort) is “No serious adverse events (SAEs) or TEAEs leading to pt withdrawal were reported”. Also, in data set [1] (SCD single 700 mg (N = 5)), the “Any TEAE, n (%)” value is 2 (40) n (%) and the “Related to study drug, n (%)” value is 1 (20) n (%). Moreover, the “Grade 1 headache (most common AE)” value in data set [2] (HS receiving 14 days) stood at 28%. Also, the “Grade 1 headache (most common AE)” value in data set [2] (HS receiving a single dose) was 4%. Further, in data set [2] (HV MAD Compound 1 N = 36), the “Any TEAE, n (%)” value was 15 (42) n (%); the “Any grade 3 or greater TEAE, n (%)” value is reported as 0 n (%); the “Drug interruption, reduction, or discontinuation due to TEAE, n (%)” value was 0 n (%). For the same compound, in data set [2] (HV MAD cohorts), the “related TEAE of grade 2 or less: headache” value worked out at 4 n, the “related TEAE of grade 2 or less: palpitations” value amounted to 1 n and the “related TEAE of grade 2 or less: somnolence” value worked out at 1 n. In data set [2] (HV SAD Compound 1 N = 24), the “Any TEAE, n (%)” value is reported as 5 (21) n (%); the “Any grade 3 or greater TEAE, n (%)” value is given as 1 (4) n (%); the “Drug interruption, reduction, or discontinuation due to TEAE, n (%)” value was 0 n (%). In data set [2] (HV SAD cohorts), the “related TEAE of grade 2 or less: headache” value is 1 n and the “related TEAE of grade 2 or less: transient ventricular tachycardia” value is reported as 1 n. The “serious adverse events / AEs leading to withdrawal” value in data set [2] (SAD and MAD cohorts of healthy volunteers) is listed as “No serious adverse events (SAEs) or AEs leading to withdrawal were reported”. Moreover, the “Hb difference versus placebo” value in data set [3] (24 h) was roughly 0.9 g/dL. Besides, the “increase in Hb” value in data set [3] (24 hours, range 0.3, 0.9) is listed as 0.5 g/dL.
